Measurements: patent US12458647B2, “Macrocyclic derivative and use thereof” (Guangzhou Joyo Pharmatech Co., Ltd., priority 2022, dated 2025)
Where two headings read alike, the source gives them in different places.

System: p-ERK level in GP2D cells
Test: Detection of p-ERK level in GP2D cells (HTRF)
Type: cell-based
Settings: 3 hours incubation, read-out: GP2D pERK IC50
From the text: GP2D cell line (DMEM+10% FBS+1% penicillin/streptomycin) was purchased from ECACC; RPMI-1640 medium was purchased from Gibco; fetal bovine serum was purchased from Hyclone; Advanced Phospho-ERK1/2(THR202/TYR204) KIT was purchased from Bioauxilium-Advanced Phospho; ERK1/2(THR202/TYR204) KIT was composed of: Advanced PhosphoERK1/2Eu Cryptate antibody, Advanced PhosphoERK1/2 d2 antibody. Blocking reagent (stock solution 100×), Lysis buffer #1 (stock solution 4×), Detection buffer (ready-to-use), with a storage temperature of ≤−16° C. for all.
(1) The cells were seeded in a white-bottomed 384-well cell culture plate, 8 μL of cell suspension per well, each well containing 7,500 cells. The cell plate was placed in a carbon dioxide incubator and incubated overnight at 37° C.;
(2) The test compound was diluted with 100% DMSO to 3 mM as the first concentration, and then diluted with a pipette to 10 concentrations of 3,000, 1,000, 300, 100, 30, 10, 3, 1, 0.3 and 0.1 μM 2 μL of the compound was taken and added to 198 μL of cell starvation medium, mixed well, 15 μL of compound solution was taken and added to 35 μL of cell starvation medium and mixed well. […]
(5) After incubation, a multilabel plate reader was used to read the HTRF excitation: 320 nm, emission: 615 nm, and 665 nm. […]

Row | Structure (SMILES) | IC50 | IC50 (GP2d)
1 | CCn1c(-c2cc(N3CCN(C)CC3)cnc2C(C)OC)c2c3cc(ccc31)-c1csc(n1)CC(NC(=O)C1CC1C(F)F)C(=O)N1NC(C(=O)OCC(C)(C)C2)C2CC1C2 (single isomer, unassigned) [Trifluoroacetate of Compound 8A] | 0.8 nM | –
2 | [2H]C([2H])([2H])N1CCN(c2cnc([C@H](C)OC)c(-c3c4c5cc(ccc5n3CC)-c3csc(n3)C[C@H](NC(=O)[C@H]3[C@H](C)[C@@H]3C)C(=O)N3N[C@H](C(=O)OCC(C)(C)C4)C4CC3C4)c2)CC1 [Trifluoroacetate of Compound 12A] | – | 0.2 nM
